A word on the EC50: it is the concentration at which the effect is half-maximal.

In the assay the target is human GPR119 (Homo sapiens (Human), UniProt Q8TDV5). Briefly: AlphaScreen cAMP assay in Min-6/hGPR119 cells (GPR119 activation, intracellular cAMP). The class given is cell-based. To be noted: MIN6 cells stably transfected with human GPR119; 45 minutes' incubation at RT; AlphaScreen cAMP Assay Kit. The gist of the method: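 MIN6 cells stably expressing human GPR119 plated 10000 cells/well and held 24 h at 37° C. Compounds applied in stimulating buffer, pH 7.4, with 0.5 mM IBMX, 0.1% BSA, 1% DMSO final, for 45 min at RT. Intracellular cAMP read by AlphaScreen.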
Sequence of human GPR119 (Q8TDV5 whole entry): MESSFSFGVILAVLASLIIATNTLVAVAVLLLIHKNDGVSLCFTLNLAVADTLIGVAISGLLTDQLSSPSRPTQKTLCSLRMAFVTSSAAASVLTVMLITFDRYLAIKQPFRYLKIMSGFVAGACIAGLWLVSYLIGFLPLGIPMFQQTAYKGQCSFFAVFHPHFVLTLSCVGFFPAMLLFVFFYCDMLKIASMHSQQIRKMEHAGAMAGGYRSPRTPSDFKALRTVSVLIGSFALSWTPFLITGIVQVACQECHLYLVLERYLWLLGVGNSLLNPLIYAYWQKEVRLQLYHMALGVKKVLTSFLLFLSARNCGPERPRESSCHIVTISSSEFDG
(Bead proximity is the source of the signal in Alpha formats.)
With `CCC1CC(=O)NN=C1c1ccc2nc(-c3ccc(OC)cc3F)oc2c1` (stereo not shown) [Example 91, 5-ethyl-6-[2-(2-fluoro-4-methoxy-phenyl)-benzoxazol-6-yl]-4,5-dihydro-2H-pyridazin-3-one], the EC50 is 142 nM.

For the compound `CCC1CC(=O)NN=C1c1ccc2nc(-c3ccc(OC)c(OC)c3)oc2c1` (stereo not shown) [Example 92, 6-[2-(3,4-dimethoxy-phenyl)-benzoxazol-6-yl]-5-ethyl-4,5-dihydro-2H-pyridazin-3-one], a half-maximal response (EC50) required 460 nM.

Regarding `CCC1CC(=O)NN=C1c1ccc2nc(-c3ccc(F)c(OC)c3)oc2c1` (stereo not shown) [Example 93, 5-ethyl-6-[2-(4-fluoro-3-methoxy-phenyl)-benzoxazol-6-yl]-4,5-dihydro-2H-pyridazin-3-one], a half-maximal effect (EC50) was put at 397 nM.

On to `CCC1CC(=O)NN=C1c1ccc2nc(-c3ccc(Oc4ccccc4)cc3)oc2c1` (stereo not shown) [Example 95, 5-ethyl-6-[2-(4-phenoxy-phenyl)-benzoxazol-6-yl]-4,5-dihydro-2H-pyridazin-3-one], for which the EC50 was found to be 67 nM.

`CCC1CC(=O)NN=C1c1ccc2nc(-c3ccc(N(C)C)cc3)oc2c1` (stereo not shown) [Example 96, 6-[2-(4-dimethylamino-phenyl)-benzoxazol-6-yl]-5-ethyl-4,5-dihydro-2H-pyridazin-3-one] displayed an EC50 of 42 nM.

`CCC1CC(=O)NN=C1c1ccc2nc(-c3cc(C)cs3)oc2c1` (stereo not shown) [Example 97, 5-ethyl-6-[2-(4-methyl-thiophen-2-yl)-benzoxazol-6-yl]-4,5-dihydro-2H-pyridazin-3-one]: it took 225 nM to reach a half-maximal effect (EC50).

Consider `CCC1CC(=O)NN=C1c1ccc2nc(-c3ccc(OC)c(F)c3)oc2c1` (stereo not shown) [Example 98, 5-ethyl-6-[2-(3-fluoro-4-methoxy-phenyl)-benzoxazol-6-yl]-4,5-dihydro-2H-pyridazin-3-one], for which the EC50 is 294 nM.

Regarding `CCC1CC(=O)NN=C1c1ccc2nc(-c3ccc(OC(C)C)cc3)oc2c1` (stereo not shown) [Example 99, 5-ethyl-6-[2-(4-isopropoxy-phenyl)-benzoxazol-6-yl]-4,5-dihydro-2H-pyridazin-3-one], the response was half-maximal at 59 nM (EC50).

`CCC1CC(=O)NN=C1c1ccc2nc(-c3cccc(OC(C)C)c3)oc2c1` (stereo not shown) [Example 100, 5-ethyl-6-[2-(3-isopropoxy-phenyl)-benzoxazol-6-yl]-4,5-dihydro-2H-pyridazin-3-one] returned an EC50 of 442 nM. Against the preceding compound, the EC50 is about 7.5-fold higher.

`CCC1CC(=O)NN=C1c1ccc2nc(-c3ccc(C)s3)oc2c1` (stereo not shown) [Example 101, 5-ethyl-6-[2-(5-methyl-thiophen-2-yl)-benzoxazol-6-yl]-4,5-dihydro-2H-pyridazin-3-one] returned an EC50 of 194 nM.

In turn, `CCC1CC(=O)NN=C1c1ccc2nc(-c3cccc(OC)c3)oc2c1` (stereo not shown) [Example 102, 5-ethyl-6-[2-(3-methoxy-phenyl)-benzoxazol-6-yl]-4,5-dihydro-2H-pyridazin-3-one] displayed an EC50 of 316 nM. This EC50 is about 1.6-fold higher than that of the compound before.

Compound `CCC1CC(=O)NN=C1c1ccc2nc(-c3ccc(OC(F)(F)F)cc3)oc2c1` (stereo not shown) [Example 103, 5-ethyl-6-[2-(4-trifluoromethoxy-phenyl)-benzoxazol-6-yl]-4,5-dihydro-2H-pyridazin-3-one] returned an EC50 of 1210 nM.

As for `CCC1CC(=O)NN=C1c1ccc2nc(-c3ccc(OC)cc3)oc2c1` (stereo not shown) [Example 104, 5-ethyl-6-[2-(4-methoxy-phenyl)-benzoxazol-6-yl]-4,5-dihydro-2H-pyridazin-3-one], the EC50 stood at 120 nM.

Compound `CCC1CC(=O)NN=C1c1ccc2nc(-c3ccc(OC4CCOCC4)cc3)oc2c1` (stereo not shown) [Example 105, 5-ethyl-6-{2-[4-(tetrahydro-pyran-4-yloxy)-phenyl]-benzoxazol-6-yl}-4,5-dihydro-2H-pyridazin-3-one] displayed an EC50 of 80 nM. Against the preceding compound, the EC50 is about 1.5-fold lower.

`O=C1CCC(c2ccc3nc(-c4cccs4)oc3c2)=NN1` [Example 111, 6-(2-thiophen-2-yl-benzoxazol-6-yl)-4,5-dihydro-2H-pyridazin-3-one] displayed an EC50 of 967 nM.

`O=C1CCC(c2ccc3nc(-c4ccco4)oc3c2)=NN1` [Example 112, 6-(2-furan-2-yl-benzoxazol-6-yl)-4,5-dihydro-2H-pyridazin-3-one] yielded an EC50 of 1320 nM.

With `O=C1CCC(c2ccc3nc(N4CCCCC4)oc3c2)=NN1` [Example 118, 6-(2-piperidin-1-yl-benzoxazol-6-yl)-4,5-dihydro-2H-pyridazin-3-one], the midpoint of the response, the EC50, lay at 3740 nM. Against the preceding compound, the EC50 is about 2.8-fold higher.

As to `O=C1CCC(c2ccc3nc(N4CCSCC4)oc3c2)=NN1` [Example 119, 6-(2-thiomorpholin-1-yl-benzoxazol-6-yl)-4,5-dihydro-2H-pyridazin-3-one], the EC50 is 3460 nM.

Take `CC1CC(=O)NN=C1c1ccc2nc(-c3ccc(C#N)cc3)oc2c1` (stereo not shown) [Example 122, 4-[6-(4-methyl-6-oxo-1,4,5,6-tetrahydro-pyridazin-3-yl)-benzoxazol-2-yl]-benzonitrile]: the EC50 was 4000 nM.

The compound `CC1CC(=O)NN=C1c1ccc2nc(-c3cccc(C#N)c3)oc2c1` (stereo not shown) [Example 123, 3-[6-(4-methyl-6-oxo-1,4,5,6-tetrahydropyridazin-3-yl)-1,3-benzoxazol-2-yl]benzonitrile] came in with an EC50 of 902 nM.

Consider `CC1CC(=O)NN=C1c1ccc2nc(-c3ccc(CN)cc3)oc2c1` (stereo not shown) [Example 124, 6-[2-(4-aminomethyl-phenyl)-benzoxazol-6-yl]-5-methyl-4,5-dihydro-2H-pyridazin-3-one], for which the EC50 was found to be 8720 nM.

For `CC1CC(=O)NN=C1c1ccc2nc(-c3cccc(CN)c3)oc2c1` (stereo not shown) [Example 125, 6-{2-[3-(aminomethyl)phenyl]1,3-benzoxazol-6-yl}-5-methyl-2,3,4,5-tetrahydropyridazin-3-one], the EC50 is 1600 nM. Against the preceding compound, the EC50 is about 5.5-fold lower.

`CC[C@H]1C(=O)NN=C(c2ccc3nc(-c4ccccc4)oc3c2)[C@H]1C` [Example 127, (4R,5S)-4-ethyl-5-methyl-6-(2-phenyl-1,3-benzoxazol-6-yl)-2,3,4,5-tetrahydropyridazin-3-one]: the EC50 was 2590 nM. Compared with the last compound, the EC50 is about 1.6-fold higher.

For `O=C1NN=C(C2CCc3nc(-c4ccccc4)oc3C2)C2CC12` (stereo not shown) [Example 130, 5-(2-phenyl-4,5,6,7-tetrahydro-benzoxazol-6-yl)-3,4-diaza-bicyclo[4.1.0]hept-4-en-2-one], a half-maximal response (EC50) required 814 nM.

Compound `O=C1NN=C([C@H]2CCc3nc(-c4ccccc4)oc3C2)[C@H]2C[C@@H]12` [Example 131, (1R,6S)-5-((S)-2-phenyl-4,5,6,7-tetrahydro-benzoxazol-6-yl)-3,4-diaza-bicyclo[4.1.0]hept-4-en-2-one] displayed an EC50 of 7700 nM.

`O=C1NN=C([C@@H]2CCc3nc(-c4ccccc4)oc3C2)[C@H]2C[C@@H]12` [Example 132, (1R,6S)-5-((R)-2-phenyl-4,5,6,7-tetrahydro-benzoxazol-6-yl)-3,4-diaza-bicyclo[4.1.0]hept-4-en-2-one]: the EC50 was found to be 4160 nM.

With `O=C1NN=C([C@H]2CCc3nc(-c4ccccc4)oc3C2)[C@@H]2C[C@H]12` [Example 133, (1S,6R)-5-((S)-2-phenyl-4,5,6,7-tetrahydro-benzoxazol-6-yl)-3,4-diaza-bicyclo[4.1.0]hept-4-en-2-one], the EC50 came out at 300 nM.

In the case of `O=C1NN=C([C@@H]2CCc3nc(-c4ccccc4)oc3C2)[C@@H]2C[C@H]12` [Example 134, (1S,6R)-5-((R)-2-phenyl-4,5,6,7-tetrahydro-benzoxazol-6-yl)-3,4-diaza-bicyclo[4.1.0]hept-4-en-2-one], the EC50 came out at 1630 nM.
